Laboratory results as given in ChEMBL document CHEMBL1268952, “Design, synthesis, and evaluation of indolinones as inhibitors of the transforming growth factor β receptor I (TGFβRI)” (J Med Chem, 2010).

Tests used:
[1] = target: T1, TGF-beta receptor type-1 (Homo sapiens, UniProt P36897); assay: Inhibition of TGFbeta receptor
T1 sequence (P36897 whole entry): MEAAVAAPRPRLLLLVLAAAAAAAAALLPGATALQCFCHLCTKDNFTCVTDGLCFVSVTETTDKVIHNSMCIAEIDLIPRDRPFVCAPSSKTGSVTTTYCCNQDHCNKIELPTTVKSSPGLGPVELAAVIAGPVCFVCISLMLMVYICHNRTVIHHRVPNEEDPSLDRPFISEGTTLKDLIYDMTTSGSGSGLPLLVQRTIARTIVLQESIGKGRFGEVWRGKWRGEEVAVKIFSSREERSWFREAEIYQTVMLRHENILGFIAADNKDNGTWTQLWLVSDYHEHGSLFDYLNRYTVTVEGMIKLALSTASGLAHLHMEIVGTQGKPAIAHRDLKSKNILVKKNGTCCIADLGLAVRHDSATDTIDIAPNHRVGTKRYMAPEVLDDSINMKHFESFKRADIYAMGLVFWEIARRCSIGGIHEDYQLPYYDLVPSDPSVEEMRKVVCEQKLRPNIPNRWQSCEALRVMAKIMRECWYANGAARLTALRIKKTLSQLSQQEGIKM

[2] = target: T1, TGF-beta receptor type-1; assay: Inhibition of TGFbeta receptor in human HaCaT cells assessed as Smad phosphorylation by ELISA; assay type: cell-based
[3] = target: Platelet-derived growth factor receptor alpha (Homo sapiens, UniProt P16234); assay: Inhibition of PDGFRalpha
[4] = tested on: HaCaT; assay: Cytotoxicity against human HaCaT cells

Sequence of Platelet-derived growth factor receptor alpha (P16234 whole entry): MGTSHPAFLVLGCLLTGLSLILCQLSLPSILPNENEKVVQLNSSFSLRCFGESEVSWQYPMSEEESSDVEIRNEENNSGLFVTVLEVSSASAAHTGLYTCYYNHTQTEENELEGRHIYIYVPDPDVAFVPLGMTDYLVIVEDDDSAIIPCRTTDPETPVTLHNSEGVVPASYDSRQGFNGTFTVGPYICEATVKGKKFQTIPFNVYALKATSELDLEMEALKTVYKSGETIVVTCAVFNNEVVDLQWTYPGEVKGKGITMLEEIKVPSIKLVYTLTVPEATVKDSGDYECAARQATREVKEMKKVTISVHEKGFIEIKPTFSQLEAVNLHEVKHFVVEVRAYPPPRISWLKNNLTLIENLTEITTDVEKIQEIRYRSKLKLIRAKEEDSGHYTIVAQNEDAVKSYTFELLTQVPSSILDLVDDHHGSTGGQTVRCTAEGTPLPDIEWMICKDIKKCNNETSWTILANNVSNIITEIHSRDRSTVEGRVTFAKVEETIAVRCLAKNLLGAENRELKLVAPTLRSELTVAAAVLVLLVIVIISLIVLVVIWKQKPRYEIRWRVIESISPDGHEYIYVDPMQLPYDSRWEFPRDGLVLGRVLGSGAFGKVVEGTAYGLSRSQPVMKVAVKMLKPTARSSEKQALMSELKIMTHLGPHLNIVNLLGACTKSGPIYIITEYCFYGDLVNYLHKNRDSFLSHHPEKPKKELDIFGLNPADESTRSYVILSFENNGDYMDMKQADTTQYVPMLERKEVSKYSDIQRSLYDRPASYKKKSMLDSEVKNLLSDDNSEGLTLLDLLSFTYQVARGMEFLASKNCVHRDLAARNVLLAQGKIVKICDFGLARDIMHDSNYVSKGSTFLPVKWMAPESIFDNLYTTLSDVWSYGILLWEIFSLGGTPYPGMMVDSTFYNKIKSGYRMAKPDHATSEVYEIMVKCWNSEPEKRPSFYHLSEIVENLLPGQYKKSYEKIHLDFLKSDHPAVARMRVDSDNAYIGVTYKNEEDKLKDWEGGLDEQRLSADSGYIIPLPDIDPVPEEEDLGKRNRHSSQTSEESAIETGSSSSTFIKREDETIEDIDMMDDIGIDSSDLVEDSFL

IC50 [1]	EC50 [2]	IC50 [3]	Compound	IC50 [4]
318 nM	708 nM	–	CC(C)NC(=O)c1ccc2c(c1)NC(=O)/C2=C(\Nc1ccc(CN2CCCCC2)cc1)c1ccccc1	–
15 nM	2180 nM	> 5000 nM	CCNC(=O)c1ccc2c(c1)NC(=O)/C2=C\Nc1ccc(N(C)C(=O)CN2CCN(C)CC2)cc1	–
> 50000 nM	> 10000 nM	> 5000 nM	CCN(C)C(=O)c1ccc2c(c1)NC(=O)/C2=C(\NC1CCN(C)CC1)c1ccccc1	–
1530 nM	–	–	O=C1Nc2cc(C(=O)NCc3ccccc3)ccc2/C1=C(/Nc1ccc(CN2CCCCC2)cc1)c1ccccc1	–
231 nM	> 10000 nM	–	CCN(C)C(=O)c1ccc2c(c1)NC(=O)/C2=C(\Nc1ccc(N(C)S(C)(=O)=O)cc1)c1ccccc1	–
64 nM	542 nM	–	CCN(CC)CCNC(=O)c1ccc(N/C(=C2\C(=O)Nc3cc(C(=O)N(C)CC)ccc32)c2ccccc2)cc1	–
52 nM	4360 nM	–	CCNC(=O)c1ccc2c(c1)NC(=O)/C2=C\Nc1ccc(N(C)C(=O)CN(C)C)cc1	–
3 nM	1250 nM	–	CCNC(=O)c1ccc2c(c1)NC(=O)/C2=C(\Nc1ccc(N(CCCN(C)C)C(C)=O)cc1)c1ccccc1	–
430 nM	> 50000 nM	–	O=C1Nc2cc(C(=O)NCCO)ccc2/C1=C(/Nc1ccc(CN2CCCCC2)cc1)c1ccccc1	–
91 nM	1060 nM	–	CCCCNC(=O)c1ccc2c(c1)NC(=O)/C2=C(\Nc1ccc(CN2CCCCC2)cc1)c1ccccc1	–
64 nM	259 nM	–	CCN(C)C(=O)c1ccc2c(c1)NC(=O)/C2=C(\Nc1ccc(CCN(C)C)cc1)c1ccccc1	> 1000 nM
24 nM	75 nM	–	CCNC(=O)c1ccc2c(c1)NC(=O)/C2=C(\Nc1ccc(CN2CCCCC2)cc1)c1ccccc1	–
32 nM	–	–	CNC(=O)c1ccc2c(c1)NC(=O)/C2=C(\Nc1ccc(CN2CCCCC2)cc1)c1ccccc1	–
> 50000 nM	> 10000 nM	> 5000 nM	CCN(C)C(=O)c1ccc2c(c1)NC(=O)/C2=C(\NC1CCCCC1)c1ccccc1	–
9 nM	411 nM	–	CCN(C)C(=O)c1ccc2c(c1)NC(=O)/C2=C(\Nc1ccc(N(CCCN(C)C)C(C)=O)cc1)c1ccccc1	–
33 nM	505 nM	–	CCNC(=O)c1ccc2c(c1)NC(=O)/C2=C(\Nc1ccc(C(=O)NCCN(CC)CC)cc1)c1ccccc1	–
35 nM	246 nM	–	CN(C)C(=O)c1ccc2c(c1)NC(=O)/C2=C(\Nc1ccc(CN2CCCCC2)cc1)c1ccccc1	–

IC50 [1]	EC50 [2]	IC50 [3]	Compound	IC50 [4]
86 nM	> 3000 nM	–	CCN(C)C(=O)c1ccc2c(c1)NC(=O)/C2=C(\Nc1ccc(N(CC(=O)N(C)C)S(C)(=O)=O)cc1)c1ccccc1	–
9 nM	1370 nM	–	CCNC(=O)c1ccc2c(c1)NC(=O)/C2=C(\Nc1ccc(N(C)C(=O)CN2CCN(C)CC2)cc1)c1ccccc1	–
616 nM	–	–	CCN(CC)Cc1cccc(N/C(=C2\C(=O)Nc3cc(C(=O)N(C)CC)ccc32)c2ccccc2)c1	–
8 nM	102 nM	–	CCN(C)C(=O)c1ccc2c(c1)NC(=O)/C2=C(\Nc1ccc(N(CCN(C)C)C(C)=O)cc1)c1ccccc1	–
3 nM	1070 nM	–	CCNC(=O)c1ccc2c(c1)NC(=O)/C2=C(\Nc1ccc(N(CCN(C)C)C(C)=O)cc1)c1ccccc1	–
369 nM	> 50000 nM	–	NC(=O)c1ccc2c(c1)NC(=O)/C2=C(\Nc1ccc(CN2CCCCC2)cc1)c1ccccc1	–
29 nM	382 nM	–	CCN(C)C(=O)c1ccc2c(c1)NC(=O)/C2=C(\Nc1ccc(N(C)C(=O)CN(C)C)cc1)c1ccccc1	–
69 nM	376 nM	–	CCNC(=O)c1ccc2c(c1)NC(=O)/C2=C\Nc1ccc(CN2CCCCC2)cc1	–
7 nM	833 nM	–	CCN(C)C(=O)c1ccc2c(c1)NC(=O)/C2=C(\Nc1ccc(N(C)C(=O)CN2CCN(C)CC2)cc1)c1ccccc1	–
17 nM	597 nM	–	CCNC(=O)c1ccc2c(c1)NC(=O)/C2=C\Nc1ccc(N(CCCN(C)C)C(C)=O)cc1	–
782 nM	–	–	CCN(C)C(=O)c1ccc2c(c1)NC(=O)/C2=C(\Nc1ccc(C(=O)O)cc1)c1ccccc1	–
2590 nM	–	> 5000 nM	CCN(C)C(=O)c1ccc2c(c1)NC(=O)/C2=C(\Nc1ccccc1)c1ccccc1	–
47 nM	135 nM	–	CCNC(=O)c1ccc2c(c1)NC(=O)/C2=C(\Nc1ccc(CCN(C)C)cc1)c1ccccc1	–
7 nM	209 nM	–	CCN(C)C(=O)c1ccc2c(c1)NC(=O)/C2=C(\Nc1ccc(N(CCN(C)C)S(C)(=O)=O)cc1)c1ccccc1	–
245 nM	696 nM	–	O=C1Nc2cc(C(=O)N3CCCC3)ccc2/C1=C(/Nc1ccc(CN2CCCCC2)cc1)c1ccccc1	–
35 nM	3380 nM	–	CCNC(=O)c1ccc2c(c1)NC(=O)/C2=C(\Nc1ccc(N(C)C(=O)CN(C)C)cc1)c1ccccc1	–
1970 nM	–	–	CCN(C)C(=O)c1ccc2c(c1)NC(=O)/C2=C(\Nc1ccc(C(=O)OC)cc1)c1ccccc1	–

Compound	IC50 [1]	EC50 [2]	IC50 [3]	IC50 [4]
CCN(CC)C(=O)c1ccc2c(c1)NC(=O)/C2=C(\Nc1ccc(CN2CCCCC2)cc1)c1ccccc1	625 nM	–	–	–
